Laboratory results: patent US9034854B2, “Pharmaceutical composition comprising estetrol derivatives for use in cancer therapy” (priority 2002, dated 2015)

Legend:
[1] = system: AP-1 site in the presence of ERα; conditions: cited from earlier work
[2] = system: AP-1 site in the presence of ERβ; conditions: cited from earlier work
human ERα = human ERα (Homo sapiens (Human), UniProt P03372); assay: Competitive steroid binding assay, ERα
human ERβ = human ERβ (Homo sapiens (Human), UniProt Q92731); assay: Competitive steroid binding assay, ERβ
[3] = Single rising oral dose study in healthy postmenopausal volunteers; type: in vivo, human
Method: To determine the bioavailability and elimination half-life of estetrol after oral dosing in humans a single rising dosing study was performed in healthy postmenopausal volunteers. Volunteers (n=6) were randomly assigned to 0.1, 1 or 10 mg estetrol and blood samples (18 per volunteer) were obtained over a period of 72 hours. After thawing the plasma samples, liquid-liquid extraction (hexane and diethyl ether) was employed to prepare the estetrol-containing plasma samples for HPLC analysis (Perkin is Elmer 200) and tandem mass spectrometry using a PE Sciex 4000 tandem mass spectrometer and APCI interface. With each sample batch, a calibration curve with 6 calibrators was recorded.

[4] = system: DMBA-induced mammary tumours; assay: DMBA-induced tumour model in rats, prevention (Example 3); type: in vivo, rat; conditions: 8 weeks
[5] = system: DMBA-induced mammary tumours; assay: Second DMBA trial in rats, dose-response prevention study (Example 4); type: in vivo, rat; conditions: 8 weeks
Text: Estetrol and tamoxifen were subsequently tested in a second DMBA trial in rats to evaluate the dose-response relationships in preventing rats from developing mammary tumours. The experimental procedure as set forth in example 3 was used as a prevention study to treat the animals (12 animals per group) for 8 consecutive weeks after tumour induction with oral dosages of either estetrol or tamoxifen. DMBA-exposed rats were randomly assigned to treatment groups, receiving oral treatment as follows: • Group 1 animals received placebo oral treatment in the form of a single daily dose of 3.0 ml/kg vehicle (20% wt/vol solution of hydroxypropyl-beta-cyclodextrin in water); • Group 2 animals received tamoxifen orally at a single daily dose of 1 mg/kg; • Group 3 animals received tamoxifen orally at a single daily dose of 2 mg/kg; • Group 4 animals received tamoxifen orally at a single daily dose of 3 mg/kg; • Group 5 animals received estetrol orally at a single daily dose of 0.5 mg/kg; • Group 6 animals received estetrol orally at a single daily dose of 1.0 mg/kg; • Group 7 animals received estetrol orally at a single daily dose of 1.5 mg/kg; • Group 8 animals received estetrol orally at a single daily dose of 2.0 mg/kg; • Group 9 animals received estetrol orally at a single daily dose of 2.5 mg/kg; and • Group 10 animals received estetrol orally at a single daily dose of 3.0 mg/kg
During the treatment period of 8 weeks, the emergence of palpable tumours and number of tumours were determined weekly. The number of mammary tumours at necropsy is depicted in FIG. 2.

[6] = system: pre-existing DMBA-induced mammary tumours; assay: DMBA-induced tumour model in rats, therapeutic design, pre-existing tumours (Example 5); type: in vivo, rat
Method: As set forth in example 3, female Sprague-Dawley rats were given 16 mg DMBA at the age of 50 days. Mammary tumour development was allowed to proceed until week 8 after DMBA treatment. Animals were subsequently allocated to one of six groups, receiving 4 weeks daily oral treatment with placebo, tamoxifen or estetrol as follows: • Group 1 animals received placebo treatment with a single daily dose of 3.0 ml/kg vehicle (20% wt/vol solution of hydroxypropyl-beta-cyclodextrin in water); • Group 2 animals were surgically castrated and received placebo treatment with 3.0 ml/kg/day vehicle; • Group 3 animals received tamoxifen at a dose of 1 mg/kg; • Group 4 animals received estetrol at a dose of 1.0 mg/kg; • Group 5 animals received estetrol at a dose of 3.0 mg/kg; • Group 6 animals received estetrol at a dose of 10.0 mg/kg. […] During therapy, the progression or disappearance of palpable mammary tumours and the size of the tumours were determined weekly. At necropsy, tumours were counted, measured and the change from baseline at the start of treatment was calculated.

[7] = Previous studies: agonistic models of bone resorption, hot flushing and vaginal cornification; type: in vivo; conditions: vaginal cornification
Text: Eighty-four female Sprague-Dawley rats (Harlan, The Netherlands) were group housed, maintained in a 12-hr light/dark environment, and fed a Soya Free Diet (SDS England) and water ad libitum. Animals were weighed on a weekly basis.

[8] = system: cultured endothelial cells of human umbilical cord veins; conditions: cited from earlier work

Sequence of human ERα (P03372 whole entry): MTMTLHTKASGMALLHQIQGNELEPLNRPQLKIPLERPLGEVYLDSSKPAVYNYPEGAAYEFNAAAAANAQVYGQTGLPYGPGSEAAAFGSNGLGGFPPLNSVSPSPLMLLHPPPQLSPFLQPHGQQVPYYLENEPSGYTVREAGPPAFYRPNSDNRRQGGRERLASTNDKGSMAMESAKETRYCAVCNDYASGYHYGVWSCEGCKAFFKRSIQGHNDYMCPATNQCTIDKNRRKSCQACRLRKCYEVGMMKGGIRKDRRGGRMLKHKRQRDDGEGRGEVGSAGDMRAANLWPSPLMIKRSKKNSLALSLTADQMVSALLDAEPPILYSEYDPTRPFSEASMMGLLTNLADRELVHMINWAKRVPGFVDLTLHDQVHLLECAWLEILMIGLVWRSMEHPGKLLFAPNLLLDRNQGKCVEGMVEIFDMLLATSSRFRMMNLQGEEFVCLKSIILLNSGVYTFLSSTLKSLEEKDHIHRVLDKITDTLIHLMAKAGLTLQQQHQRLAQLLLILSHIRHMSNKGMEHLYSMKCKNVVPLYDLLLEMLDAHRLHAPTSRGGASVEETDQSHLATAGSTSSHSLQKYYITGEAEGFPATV
Sequence of human ERβ (Q92731 whole entry): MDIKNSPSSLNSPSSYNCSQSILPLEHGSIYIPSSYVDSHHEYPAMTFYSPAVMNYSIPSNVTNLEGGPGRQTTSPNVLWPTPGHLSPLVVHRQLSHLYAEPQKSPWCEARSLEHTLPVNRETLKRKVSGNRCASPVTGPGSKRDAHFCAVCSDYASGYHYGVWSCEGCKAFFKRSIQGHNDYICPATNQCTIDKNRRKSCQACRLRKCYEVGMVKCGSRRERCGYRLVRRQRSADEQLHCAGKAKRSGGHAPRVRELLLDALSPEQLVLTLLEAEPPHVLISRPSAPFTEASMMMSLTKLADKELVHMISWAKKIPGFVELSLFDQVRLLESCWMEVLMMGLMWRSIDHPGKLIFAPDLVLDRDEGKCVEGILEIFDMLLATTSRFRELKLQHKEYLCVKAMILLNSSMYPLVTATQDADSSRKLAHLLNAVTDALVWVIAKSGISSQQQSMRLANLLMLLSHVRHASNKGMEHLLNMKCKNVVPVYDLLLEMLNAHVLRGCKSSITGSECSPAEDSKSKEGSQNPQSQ

Structure (SMILES): C[C@]12CC[C@@H]3c4ccc(O)cc4CC[C@H]3[C@@H]1CC[C@@H]2O [E2, 17β-estradiol]
- Effect on AP-1 site [1]: activates
- Effect on AP-1 site [2]: inhibits

Structure (SMILES): C[C@]12CC[C@@H]3c4ccc(O)cc4CC[C@H]3[C@@H]1[C@@H](O)[C@@H](O)[C@@H]2O [E4, 1,3,5 (10)-estratrien-3,15α,16α,17β-tetrol]
- Ki (human ERα): 4.9 nM
- Relative ERα/ERβ preference (human ERα; preference for binding to ERα protein versus ERβ protein): 400%
- Ki (human ERβ): 19 nM
- half-life ([3]; female, human, plasma, po, oral dosing, human postmenopausal subjects, read-out: Elimination half-life): > 20 h
- AUC values, dose-linearity ([3]; oral 0.1, 1, 10 mg, plasma): good dose-linearity
- Tolerability ([3]; oral dose increased from 0.1 to 1 and 10 mg, postmenopausal volunteers): Good tolerability
- Oral absorption ([3]; over the entire dose range 0.1-10 mg oral): well absorbed
- Efficacy in preventing growth of DMBA-induced tumours relative to tamoxifen ([4]; E4 […] vs tamoxifen 3 mg/kg/day orally): as effective as tamoxifen
- Mammary tumour formation ([5]; estetrol 0.5-3.0 mg/kg/day orally): dose-dependent inhibition of mammary tumour formation
- Protection from developing tumours ([5]; estetrol 2.5 and 3.0 mg/kg/day orally): completely protected rats from developing tumours
- Tumour number at necropsy ([6]; estetrol 1 mg/kg/day orally 4 weeks, n=9, 16 at start of treatment): 23
- Tumour number at necropsy ([6]; estetrol 3 mg/kg/day orally 4 weeks, n=9, 16 at start of treatment): 15
- Tumour number at necropsy ([6]; estetrol 10 mg/kg/day orally 4 weeks, n=10, 18 at start of treatment): 7
- Tumour size, percentage change from baseline, net group effect ([6]; estetrol 1, 3, 10 mg/kg/day orally 4 weeks): dose dependent pronounced tumour size reduction
- Efficacy, net disappearance of mammary tumours ([6]; estetrol orally 4 weeks, started 8 weeks after DMBA): comparable to ovariectomy
- In vivo estrogenicity, relative potency ([7]; 0.125 mg/kg/day EE vs […] E4, hot flushing): equipotency
- In vivo estrogenicity, relative potency ([7]; […] EE vs 0.5 mg/kg/day E4, hot flushing): equipotency
- Effect on proliferation of vascular endothelial cells [8]: No significant effect

Structure (SMILES): C[C@]12CC[C@@H]3c4ccc(O)cc4C[C@@H](CCCCCCCCC[S+]([O-])CCCC(F)(F)C(F)(F)F)[C@H]3[C@@H]1CC[C@@H]2O (stereo partly shown) [ICI-182,780]
- Effect on AP-1 site [1]: inhibit
- Effect on AP-1 site [2]: stimulate

Structure (SMILES): O=C(c1ccc(OCCN2CCCCC2)cc1)c1c(-c2ccc(O)cc2)sc2cc(O)ccc12 [raloxifene]
- Effect on AP-1 site [1]: inhibit
- Effect on AP-1 site [2]: stimulate

Structure (SMILES): CC/C(=C(\c1ccccc1)c1ccc(OCCN(C)C)cc1)c1ccccc1 [tamoxifen, reference compound]
- Development of mammary tumours ([4]; tamoxifen 3 mg/kg/day orally): inhibiting the development of mammary tumours
- Palpable tumours developed ([5]; tamoxifen 1, 2 and 3 mg/kg/day orally): In none of the tamoxifen groups (1, 2, and 3 mg/kg/day) palpable tumours developed
- Tumour size, percentage change from baseline, net group effect ([6]; tamoxifen 1 mg/kg/day orally 4 weeks): increase in tumour size as net group effect
- Efficacy against further development and progression of mammary tumours ([6]; tamoxifen 1 mg/kg/day orally 4 weeks, started 8 weeks after DMBA): ineffective
- Tumour number at necropsy ([6]; tamoxifen 1 mg/kg/day orally 4 weeks, n=8, 15 at start of treatment): 19
- Effect on AP-1 site [1]: inhibit
- Effect on AP-1 site [2]: stimulate
